# Results as given in US20240197761A1, “FUCOSYLATION AND IMMUNE MODULATION IN CANCER” (H. LEE MOFFITT CANCER CENTER AND RESEARCH INSTITUTE, INC., priority 2021, published 2024).
# Entries after “also recorded” stand apart in the source; their conditions may differ.
# Key:
# [1] = system: human PBMC-derived, CD3/CD28-activated CD4+T cells; test: Phosphoproteomic and fuco-proteomic mass spectrometric profiling of CD4+T cells; format: cell-based; details: 250 μM L-fucose, 48 h
# Description: FIGS. 14A-14E show Fucosylation of CD4^+T cells affects PKA activity and actin polymerization; and the identification of Integrin P5 as a highly fucosylated protein in activated CD4+ T cells. (a) Top 5 pathways in human CD4^+T cells that are affected by increased fucosylation identified by Ingenuity Pathway Analysis (Qiagen; pathways were identified from phosphoproteomic analyses of CD3/CD28-activated human PBMC-derived CD4^+T cells treated L-fucose (LF) isolated from 3 independent healthy human donors (D1, D2, D3)). (b) (left) Immunoblot of PKA phosphorylated substrates (top) and Ponceau staining (bottom) of human PBMC-derived, CD3/CD28-activated CD4^+T cells that were treated ±250 μM LF±10 μM forskolin (Fkn, a PKA agonist). (right) Densitometric quantification of selected bands (red dashed boxes) normalized to Ponceau staining. (c) Immunoblot of β-actin (top) and Ponceau staining (middle) of human PBMC-derived, CD3/CD28 activated CD4^+T cells were treated ±250 μM LF±25 mM DTSP crosslinker (x-link). (bottom) Densitometric quantification of high molecular weight β-actin oligomers (red dashed boxes) normalized to Ponceau intensity and then normalized to −LF, -x-link samples. (d) Top 5 AAL-bound (fucosylated) proteins in human PBMC-derived, CD3/CD28-activated CD4^+T cells from (a) that were identified by Ingenuity Pathway Analysis (Qiagen). […]
# [2] = system: MDSCs co-cultured with T cells; test: MDSC immunosuppression of T cell proliferation (Cell Trace Violet) and IFNγ release/production in co-culture; format: cell-based, mouse; details: for T cell proliferation with pretreated splenic MDSCs: FIG. 3F; for IFNγ release / production by T cells with modulated MDSCs: FIG. 3G, FIG. 8B
# Method: Tlhe myeloid cells, which were stimulated to imlmuno, suppressive MDSCs using GM/G-CSF, were divided into 3 treatment groups: (i) Treatment±250 uM L-fuc prior, duri ng, and after GM/G-CSF stimulation. Treatment±250 uM L-fuc during and after GM/G-CSF stimulation. (ii) Treatment±250 uM L-fuc only after GM/G-CSF stimulation. Greiss assay timepoints reier to hours after initial dose of L-fuc regardless of when cells were treated, L-fuc abrogated their ability to glenerate NO. […] We subsequently co-cultured the modulated MDSCs wilh T cells, which were then activated or not with CD3/CD28 beads and measured for IFNψ production. *. p •<0.05
structure (smiles),measurement,setting,value
C[C@H](O)[C@@H](O)[C@@H](O)[C@H](O)C=O [L-fucose],Protein Kinase A (PKA) and actin signaling,[1],significantly altering
same,T cell proliferation with pretreated splenic MDSCs,[2],increased
same,T cell proliferation with pretreated splenic MDSCs,[2]; listed as L-fuc,decreases splenic MDSC immunosuppression
same,IFNγ release / production by T cells with modulated MDSCs,[2],increased
same,IFNγ release / production by T cells with modulated MDSCs,[2]; listed as L-fuc,significantly stimulated; also recorded: decreases splenic MDSC immunosuppression
